What was measured:
DNA polymerase beta = DNA polymerase beta (Homo sapiens, UniProt P06746); experiment: Inhibition of human DNA polymerase beta using 5' end radiolabeled 24nt DNA/48nt DNA as primer/template after 5 mins by PAGE analysis
[1] = Inhibition of human DNA polymerase gamma using 5' end radiolabeled 24nt DNA/36nt DNA as primer/template after 120 mins by PAGE analysis
[2] = biological target: T1, DNA polymerase alpha catalytic subunit (Homo sapiens, UniProt P09884); experiment: Inhibition of human DNA polymerase alpha using 5' end radiolabeled 24nt DNA/48nt DNA as primer/template after 5 mins by PAGE analysis
T1 sequence (P09884 whole entry): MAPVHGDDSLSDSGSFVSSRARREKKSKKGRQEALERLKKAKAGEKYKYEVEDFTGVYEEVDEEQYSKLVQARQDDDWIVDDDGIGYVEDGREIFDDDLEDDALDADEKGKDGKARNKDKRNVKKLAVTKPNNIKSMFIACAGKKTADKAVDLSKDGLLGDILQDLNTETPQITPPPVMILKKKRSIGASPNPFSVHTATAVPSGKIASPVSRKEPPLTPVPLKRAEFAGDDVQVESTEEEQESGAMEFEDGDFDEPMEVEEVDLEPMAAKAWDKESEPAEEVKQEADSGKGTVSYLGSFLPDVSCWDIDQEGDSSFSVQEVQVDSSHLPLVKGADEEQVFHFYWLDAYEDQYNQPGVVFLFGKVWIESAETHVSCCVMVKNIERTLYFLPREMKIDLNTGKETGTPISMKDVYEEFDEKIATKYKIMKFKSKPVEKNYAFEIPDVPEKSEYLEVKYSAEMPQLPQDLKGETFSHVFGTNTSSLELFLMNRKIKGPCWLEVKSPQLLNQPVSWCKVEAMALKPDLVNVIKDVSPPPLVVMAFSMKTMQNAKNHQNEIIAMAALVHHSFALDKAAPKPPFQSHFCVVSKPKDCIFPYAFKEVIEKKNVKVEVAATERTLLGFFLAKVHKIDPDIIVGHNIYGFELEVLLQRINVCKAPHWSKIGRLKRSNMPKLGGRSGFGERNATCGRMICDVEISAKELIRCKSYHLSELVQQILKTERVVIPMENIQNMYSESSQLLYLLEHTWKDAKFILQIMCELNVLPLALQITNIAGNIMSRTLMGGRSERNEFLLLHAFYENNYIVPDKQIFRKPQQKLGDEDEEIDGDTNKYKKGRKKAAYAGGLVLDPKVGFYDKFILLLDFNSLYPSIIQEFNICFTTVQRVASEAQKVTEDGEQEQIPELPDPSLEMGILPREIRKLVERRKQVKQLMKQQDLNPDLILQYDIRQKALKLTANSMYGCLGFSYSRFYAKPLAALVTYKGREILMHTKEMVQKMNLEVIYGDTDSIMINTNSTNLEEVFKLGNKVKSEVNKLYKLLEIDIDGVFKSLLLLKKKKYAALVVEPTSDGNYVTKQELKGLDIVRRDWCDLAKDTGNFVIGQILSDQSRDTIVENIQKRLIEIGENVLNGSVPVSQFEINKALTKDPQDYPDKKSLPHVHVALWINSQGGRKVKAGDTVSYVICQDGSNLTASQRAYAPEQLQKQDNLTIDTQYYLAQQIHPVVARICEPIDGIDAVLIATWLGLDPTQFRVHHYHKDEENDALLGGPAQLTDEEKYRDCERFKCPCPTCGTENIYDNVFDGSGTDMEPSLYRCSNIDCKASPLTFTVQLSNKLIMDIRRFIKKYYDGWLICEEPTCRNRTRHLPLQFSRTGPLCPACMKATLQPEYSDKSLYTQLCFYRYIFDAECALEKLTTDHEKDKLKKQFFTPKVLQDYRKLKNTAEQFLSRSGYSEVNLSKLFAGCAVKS

[3] = biological target: DNA-directed RNA polymerase, mitochondrial (Homo sapiens) (UniProt O00411); experiment: Inhibition of human POLRMT using 5'-P32-RNA/DNA hybrid assessed as incorporation of UTP at 100 uM after 2 hrs by scintillation counting method relative to control; design: scale not given: the % may be the effect or the level left
[4] = Inhibition of RNA polymerase 2 isolated from human HeLa cell nuclear extract assessed as decrease in incorporation of P32-alpha-CTP after 2 hrs by scintillation counting method; type: cell-free
[5] = system: cytochrome c oxidase subunit 2 DNA (mitochondrial DNA) levels; experiment: Mitochondrial toxicity in human HepG2 cells assessed as inhibition of cytochrome c oxidase subunit 2 DNA levels at 25 uM measured on day 14 by RT-PCR method relative to nuclear beta-actin DNA levels; type: cell-based
[6] = system: cytochrome c oxidase subunit 2 DNA (mitochondrial DNA) levels; experiment: Mitochondrial toxicity in human HepG2 cells assessed as inhibition of cytochrome c oxidase subunit 2 DNA levels at 50 uM measured on day 14 by RT-PCR method relative to nuclear beta-actin DNA levels; type: cell-based
Hepatitis C virus [7] = experiment: Selectivity ratio of EC90 for HCV genotype 1b harboring NS5B S282T mutant to EC90 for HCV genotype 1b harboring wild type NS5B; type: functional, Hepacivirus hominis
Cytochrome P450 1A2 = biological target: T2, Cytochrome P450 1A2 (Homo sapiens, UniProt P05177); experiment: Inhibition of human CYP1A2 using alpha-naphthoflavone […]; type: ADME
T2 sequence (P05177 whole entry): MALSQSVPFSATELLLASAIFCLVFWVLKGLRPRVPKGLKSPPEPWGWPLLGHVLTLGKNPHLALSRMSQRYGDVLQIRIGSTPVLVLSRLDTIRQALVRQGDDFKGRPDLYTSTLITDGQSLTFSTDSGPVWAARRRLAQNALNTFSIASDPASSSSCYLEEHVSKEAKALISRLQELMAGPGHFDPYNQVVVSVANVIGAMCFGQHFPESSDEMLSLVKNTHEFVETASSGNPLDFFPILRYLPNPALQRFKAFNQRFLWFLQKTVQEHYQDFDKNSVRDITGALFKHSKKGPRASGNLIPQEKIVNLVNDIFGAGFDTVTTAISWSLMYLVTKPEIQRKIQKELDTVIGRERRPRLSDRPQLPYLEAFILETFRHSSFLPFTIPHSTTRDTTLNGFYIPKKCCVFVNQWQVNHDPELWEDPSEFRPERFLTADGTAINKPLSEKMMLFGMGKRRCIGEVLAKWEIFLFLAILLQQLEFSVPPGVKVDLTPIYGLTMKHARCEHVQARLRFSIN

Hepatitis C virus [8] = experiment: Antiviral activity against HCV genotype 1b harboring NS5B S282T mutant infected in human HuH7 cells assessed as inhibition of viral RNA replication after 4 days by luciferase reporter gene assay; type: functional, cell-based, Hepacivirus hominis; conditions: Huh-7, 96 h
[9] = Cytotoxicity against human HuH7 cells assessed as inhibition of cell proliferation after 4 days by MTS assay; type: cell-based, Huh-7
[10] = Cytotoxicity against human PBMC assessed as inhibition of cell proliferation after 5 days by MTT assay; type: cell-based
nuclear DNA levels [11] = experiment: Cytotoxicity against human HepG2 cells assessed as inhibition of nuclear DNA levels at 50 uM measured on day 14 by RT-PCR method relative to nuclear beta-actin DNA levels; type: cell-based; conditions: read-out: INH
Hepatitis C virus [12] = experiment: Antiviral activity against HCV genotype 4 infected in human HuH7 cells assessed as inhibition of viral RNA replication after 96 hrs by RT-PCR method; type: functional, cell-based, Hepacivirus hominis; conditions: genotype 4, Huh-7, 96 h
Cytochrome P450 3A4 = Cytochrome P450 3A4 (Homo sapiens, UniProt P08684); experiment: Inhibition of human CYP3A4 using ketoconazole […]; type: ADME
[13] = system: cytochrome c oxidase subunit 2 DNA (mitochondrial DNA) levels; experiment: Mitochondrial toxicity in human HepG2 cells assessed as inhibition of cytochrome c oxidase subunit 2 DNA levels measured on day 14 by RT-PCR method; type: cell-based
Hepatitis C virus [14] = experiment: Antiviral activity against HCV genotype 1b infected in human HuH7 cells assessed as inhibition of viral RNA replication after 96 hrs by RT-PCR method; type: functional, cell-based, Hepacivirus hominis; conditions: Huh-7, 96 h
[15] = system: cytochrome c oxidase subunit 2 DNA (mitochondrial DNA) levels; experiment: in vitro; conditions: human, HepG2 cells
Hepatitis C virus [16] = experiment: Antiviral activity against HCV genotype 1a infected in human HuH7 cells assessed as inhibition of viral RNA replication after 96 hrs by RT-PCR method; type: functional, cell-based, Hepacivirus hominis; conditions: subtype 1a, Huh-7, 96 h
Hepatitis C virus [17] = experiment: Antiviral activity against HCV genotype 3a infected in human HuH7 cells assessed as inhibition of viral RNA replication after 96 hrs by RT-PCR method; type: functional, cell-based, Hepacivirus hominis; conditions: Huh-7, 96 h
HepG2 [18] = experiment: Mitochondrial toxicity in human HepG2 cells assessed as cytochrome c oxidase subunit 2 DNA levels at 10 uM measured on day 14 by RT-PCR method relative to nuclear beta-actin DNA levels; conditions: hepg2, 10 µM
nuclear DNA levels [19] = experiment: in vitro; conditions: human, HepG2 cells
HepG2 [20] = experiment: Mitochondrial toxicity in human HepG2 cells assessed as cytochrome c oxidase subunit 2 DNA levels at 50 uM measured on day 14 by RT-PCR method relative to nuclear beta-actin DNA levels; type: cell-based; conditions: hepg2, 50 µM
HepG2 [21] = experiment: Mitochondrial toxicity in human HepG2 cells assessed as cytochrome c oxidase subunit 2 DNA levels at 25 uM measured on day 14 by RT-PCR method relative to nuclear beta-actin DNA levels; type: cell-based; conditions: hepg2, 25 µM
Hepatitis C virus [22] = experiment: Antiviral activity against HCV genotype 2b infected in human HuH7 cells assessed as inhibition of viral RNA replication after 96 hrs by RT-PCR method; type: functional, cell-based, Hepacivirus hominis; conditions: Huh-7, 96 h
HepG2 [23] = experiment: Cytotoxicity against human HepG2 cells assessed as inhibition of nuclear DNA levels measured on day 14 by RT-PCR method; conditions: HepG2, 336 h
Cytochrome P450 2D6 = Cytochrome P450 2D6 (Homo sapiens, UniProt P10635); experiment: Inhibition of human CYP2D6 using quinidine […]; type: ADME
[24] = Cytotoxicity against human CEM cells assessed as inhibition of cell proliferation after 4 days by MTT assay; type: cell-based, CCRF-CEM
Hepatitis C virus [25] = experiment: Antiviral activity against HCV genotype 2a/k infected in human HuH7 cells assessed as inhibition of viral RNA replication after 96 hrs by RT-PCR method; type: functional, cell-based, Hepacivirus hominis; conditions: Huh-7, 96 h
[26] = Cytotoxicity against African green monkey Vero cells assessed as inhibition of cell proliferation after 3 days by MTT assay; type: cell-based; conditions: chlorocebus sabaeus
nuclear DNA levels [27] = experiment: Cytotoxicity against human HepG2 cells assessed as inhibition of nuclear DNA levels at 25 uM measured on day 14 by RT-PCR method relative to nuclear beta-actin DNA levels; type: cell-based; conditions: read-out: INH
Hepatitis C virus [28] = experiment: Antiviral activity against HCV genotype 1b harboring wild type NS5B infected in human HuH7 cells assessed as inhibition of viral RNA replication after 5 days by RT-PCR method; type: functional, cell-based, Hepacivirus hominis; conditions: Huh-7, 120 h
Hepatitis C virus [29] = experiment: Selectivity ratio of EC50 for HCV genotype 1b harboring NS5B S282T mutant to EC50 for HCV genotype 1b harboring wild type NS5B; type: functional, Hepacivirus hominis
Cytochrome P450 2C9 = Cytochrome P450 2C9 (Homo sapiens, UniProt P11712); experiment: Inhibition of human CYP2C9 using sulfaphenazole […]; type: ADME
Sequence of Cytochrome P450 2C9 (P11712 whole entry): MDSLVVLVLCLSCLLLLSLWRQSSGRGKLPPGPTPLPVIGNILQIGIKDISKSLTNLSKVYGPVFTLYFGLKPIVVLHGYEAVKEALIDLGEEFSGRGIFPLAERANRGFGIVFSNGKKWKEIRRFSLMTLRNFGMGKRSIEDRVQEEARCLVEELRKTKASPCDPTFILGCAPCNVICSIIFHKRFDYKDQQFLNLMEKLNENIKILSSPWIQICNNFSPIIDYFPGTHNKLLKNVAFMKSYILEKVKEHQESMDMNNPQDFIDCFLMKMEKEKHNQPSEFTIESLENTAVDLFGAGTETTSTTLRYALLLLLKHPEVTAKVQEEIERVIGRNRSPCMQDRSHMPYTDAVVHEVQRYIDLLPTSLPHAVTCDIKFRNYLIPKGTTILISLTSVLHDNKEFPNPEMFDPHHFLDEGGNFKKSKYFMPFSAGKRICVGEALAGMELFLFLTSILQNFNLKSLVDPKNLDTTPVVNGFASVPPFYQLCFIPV

Sequence of Cytochrome P450 2D6 (P10635 whole entry): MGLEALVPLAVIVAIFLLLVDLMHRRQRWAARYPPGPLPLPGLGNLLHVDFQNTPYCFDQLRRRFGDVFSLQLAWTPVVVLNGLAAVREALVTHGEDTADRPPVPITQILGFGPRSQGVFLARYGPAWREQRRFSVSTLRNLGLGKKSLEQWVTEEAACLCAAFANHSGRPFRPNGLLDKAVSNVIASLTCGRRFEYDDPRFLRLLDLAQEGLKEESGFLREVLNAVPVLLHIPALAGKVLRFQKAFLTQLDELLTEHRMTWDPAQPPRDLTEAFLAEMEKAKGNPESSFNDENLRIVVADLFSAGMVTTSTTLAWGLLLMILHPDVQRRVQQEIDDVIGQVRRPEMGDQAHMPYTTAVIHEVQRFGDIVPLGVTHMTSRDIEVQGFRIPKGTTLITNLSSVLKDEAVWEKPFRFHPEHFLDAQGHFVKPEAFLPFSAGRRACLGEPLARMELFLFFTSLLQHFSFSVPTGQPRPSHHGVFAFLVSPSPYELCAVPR
Sequence of DNA-directed RNA polymerase, mitochondrial (Homo sapiens) (O00411 whole entry): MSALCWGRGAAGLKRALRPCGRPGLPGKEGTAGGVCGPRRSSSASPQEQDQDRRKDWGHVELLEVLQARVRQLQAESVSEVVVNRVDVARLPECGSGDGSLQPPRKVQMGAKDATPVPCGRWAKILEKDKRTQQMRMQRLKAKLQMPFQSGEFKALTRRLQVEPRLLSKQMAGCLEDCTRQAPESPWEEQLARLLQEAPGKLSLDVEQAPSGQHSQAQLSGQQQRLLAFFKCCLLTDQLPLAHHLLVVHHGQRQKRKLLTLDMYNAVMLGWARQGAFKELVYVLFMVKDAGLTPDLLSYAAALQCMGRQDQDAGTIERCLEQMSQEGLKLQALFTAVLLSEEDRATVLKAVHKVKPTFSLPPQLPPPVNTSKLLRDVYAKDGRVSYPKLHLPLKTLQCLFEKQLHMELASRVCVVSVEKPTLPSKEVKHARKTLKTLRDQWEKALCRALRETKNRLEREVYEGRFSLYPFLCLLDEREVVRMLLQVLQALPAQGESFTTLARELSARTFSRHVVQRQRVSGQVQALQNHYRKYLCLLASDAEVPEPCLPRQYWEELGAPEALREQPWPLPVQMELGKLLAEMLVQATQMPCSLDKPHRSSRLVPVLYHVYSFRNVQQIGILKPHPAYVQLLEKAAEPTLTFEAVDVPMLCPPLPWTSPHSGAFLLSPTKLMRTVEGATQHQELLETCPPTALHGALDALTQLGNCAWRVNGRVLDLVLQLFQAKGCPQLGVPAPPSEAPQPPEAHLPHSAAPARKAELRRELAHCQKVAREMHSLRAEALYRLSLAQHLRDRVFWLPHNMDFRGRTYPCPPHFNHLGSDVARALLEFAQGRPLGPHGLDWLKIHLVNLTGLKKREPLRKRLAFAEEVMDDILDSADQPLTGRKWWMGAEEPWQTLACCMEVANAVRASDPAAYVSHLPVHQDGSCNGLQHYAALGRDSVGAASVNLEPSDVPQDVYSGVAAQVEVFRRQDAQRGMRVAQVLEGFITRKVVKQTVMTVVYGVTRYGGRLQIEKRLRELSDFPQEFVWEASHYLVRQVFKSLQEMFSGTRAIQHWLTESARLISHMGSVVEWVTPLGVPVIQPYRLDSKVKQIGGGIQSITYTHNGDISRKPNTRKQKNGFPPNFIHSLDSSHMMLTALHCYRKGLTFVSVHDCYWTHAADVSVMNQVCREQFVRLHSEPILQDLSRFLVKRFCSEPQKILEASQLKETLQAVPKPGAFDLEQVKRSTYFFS
Sequence of Cytochrome P450 3A4 (P08684 whole entry): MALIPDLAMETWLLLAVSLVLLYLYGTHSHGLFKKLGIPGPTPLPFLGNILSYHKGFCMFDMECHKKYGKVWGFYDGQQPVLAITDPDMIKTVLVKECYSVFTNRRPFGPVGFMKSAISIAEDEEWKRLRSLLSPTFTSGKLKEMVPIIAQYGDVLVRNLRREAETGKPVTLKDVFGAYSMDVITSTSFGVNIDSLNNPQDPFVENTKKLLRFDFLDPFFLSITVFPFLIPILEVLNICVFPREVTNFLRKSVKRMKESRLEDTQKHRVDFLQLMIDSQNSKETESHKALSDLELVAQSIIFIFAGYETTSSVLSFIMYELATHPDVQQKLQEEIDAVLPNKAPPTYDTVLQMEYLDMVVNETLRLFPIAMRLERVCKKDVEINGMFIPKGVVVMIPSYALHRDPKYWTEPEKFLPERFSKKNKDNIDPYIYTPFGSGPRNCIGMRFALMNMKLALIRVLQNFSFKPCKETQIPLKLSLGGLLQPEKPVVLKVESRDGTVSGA

Molecule `C[C@@]1(F)[C@H](O)[C@@H](COP(=O)(O)OP(=O)(O)OP(=O)(O)O)O[C@H]1n1ccc(=O)[nH]c1=O` [GS-461203] has an IC50 (DNA polymerase beta) greater than 100000 nM, an IC50 [1] greater than 100000 nM and an IC50 [2] greater than 100000 nM. For the same molecule, the Activity [3] was 3.1% and the IC50 [4] was greater than 100000 nM.

`CC(C)OC(=O)[C@H](C)N[P@](=O)(OC[C@H]1O[C@@H](n2ccc(=O)[nH]c2=O)[C@](C)(F)[C@@H]1O)Oc1ccccc1` [SOFOSBUVIR] showed an inhibition at 14 days, 25 µM [5] of less than 1%, an inhibition at 14 days, 50 µM [6] of less than 1% and a Selectivity ratio (Hepatitis C virus [7]) of 3. It also gave an IC50 (Cytochrome P450 1A2) greater than 100000 nM, an EC50 (Hepatitis C virus [8]) of 400 nM and an EC90 (Hepatitis C virus [8]) of 1000 nM. For the same molecule, the CC50 at 96 h [9] was greater than 10000 nM, the CC50 at 120 h [10] was greater than 100000 nM and the cytotoxicity at 14 days, 50 µM (nuclear DNA levels [11]) was 38.8%. It also gave an IC50 (Hepatitis C virus [12]) of 70 nM, an IC50 (Cytochrome P450 3A4) of 8400 nM and an IC50 at 14 days [13] greater than 50000 nM. It also gave an IC50 (Hepatitis C virus [14]) of 60 nM, an inhibition at 14 days, 10 µM [15] of less than 1% and an IC50 (Hepatitis C virus [16]) of 60 nM. For the same molecule, the IC50 (Hepatitis C virus [17]) was 90 nM, the Activity (HepG2 [18]) was 176% and the cytotoxicity at 14 days, 10 µM (nuclear DNA levels [19]) was 7.3%. The Activity (HepG2 [20]) was 255%, the Activity (HepG2 [21]) was 187% and the IC50 (Hepatitis C virus [22]) was 40 nM. It also gave an IC50 (HepG2 [23]) greater than 50000 nM, an IC50 (Cytochrome P450 2D6) greater than 100000 nM and a CC50 at 96 h [24] greater than 100000 nM. The IC50 (Hepatitis C virus [25]) was 20 nM, the CC50 at 72 h [26] was greater than 100000 nM and the cytotoxicity at 14 days, 25 µM (nuclear DNA levels [27]) was 38.3%. The EC50 (Hepatitis C virus [28]) was 90 to 200 nM, the EC90 (Hepatitis C virus [28]) was 300 to 500 nM and the “Ratio EC50” value (Hepatitis C virus [29]) was 4.4. It also gave an IC50 (Cytochrome P450 2C9) of 60000 nM.
